Article PMC2764847, “Dual Localized AtHscB Involved in Iron Sulfur Protein Biogenesis in Arabidopsis” (PLoS ONE, 2009)

Target: T1, AtHscA1 (Arabidopsis thaliana, UniProt Q8GUM2)
T1 construct: gene HSP70-9
T1 sequence (Q8GUM2 47-682): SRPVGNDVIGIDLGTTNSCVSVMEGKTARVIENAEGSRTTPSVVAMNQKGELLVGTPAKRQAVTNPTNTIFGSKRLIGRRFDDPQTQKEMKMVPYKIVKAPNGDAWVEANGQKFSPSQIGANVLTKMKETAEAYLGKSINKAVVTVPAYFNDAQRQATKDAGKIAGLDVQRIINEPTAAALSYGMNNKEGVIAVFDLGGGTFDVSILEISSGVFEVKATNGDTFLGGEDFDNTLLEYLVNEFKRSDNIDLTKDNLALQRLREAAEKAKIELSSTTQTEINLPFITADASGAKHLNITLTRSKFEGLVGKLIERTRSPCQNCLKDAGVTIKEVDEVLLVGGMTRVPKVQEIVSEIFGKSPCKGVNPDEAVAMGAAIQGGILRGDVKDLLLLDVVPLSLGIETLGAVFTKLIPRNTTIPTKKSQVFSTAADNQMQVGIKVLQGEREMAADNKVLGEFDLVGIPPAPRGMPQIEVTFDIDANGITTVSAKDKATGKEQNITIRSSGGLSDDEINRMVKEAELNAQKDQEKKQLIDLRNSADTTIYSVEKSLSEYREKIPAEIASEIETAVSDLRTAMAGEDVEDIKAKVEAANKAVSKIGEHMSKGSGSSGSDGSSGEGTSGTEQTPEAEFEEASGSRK
Assay: ATPase assay, [gamma-32P]ATP hydrolysis, TLC and phosphorimager
Assay type: biochemical
Settings: 50 mM Tris-HCl pH 7.4, 50 mM NaCl, 10 mM KCl, 0.1 mM EDTA, 1.5 mM DTT; 2 µM protein; no co-chaperone; labelled compound

Nc1ncnc2c1ncn2[C@@H]1O[C@H](COP(=O)(O)OP(=O)(O)OP(=O)(O)O)[C@@H](O)[C@H]1O [ATP]
Km: 49.5 µM
